The target of this assay is T1, USP7 (Homo sapiens, UniProt Q93009).
T1 construct: full length human USP7 protein; made in house
Kind of assay: USP7, Ub-PLA2 assay. The class given is biochemical. As to conditions: for EC50: Ub-PLA2 / NBD C6-HPC fluorescence, 30 minute preincubation, read-out: EC50 for inhibition of USP7. A digest of the protocol: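 Activity read as fluorescence in a Ub-PLA2 format, with percent inhibition calculated within each plate against DMSO (uninhibited) and NEM (background) wells. Vehicle was 100% DMSO.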

Structures are written as SMILES.

T1 sequence (Q93009 whole entry): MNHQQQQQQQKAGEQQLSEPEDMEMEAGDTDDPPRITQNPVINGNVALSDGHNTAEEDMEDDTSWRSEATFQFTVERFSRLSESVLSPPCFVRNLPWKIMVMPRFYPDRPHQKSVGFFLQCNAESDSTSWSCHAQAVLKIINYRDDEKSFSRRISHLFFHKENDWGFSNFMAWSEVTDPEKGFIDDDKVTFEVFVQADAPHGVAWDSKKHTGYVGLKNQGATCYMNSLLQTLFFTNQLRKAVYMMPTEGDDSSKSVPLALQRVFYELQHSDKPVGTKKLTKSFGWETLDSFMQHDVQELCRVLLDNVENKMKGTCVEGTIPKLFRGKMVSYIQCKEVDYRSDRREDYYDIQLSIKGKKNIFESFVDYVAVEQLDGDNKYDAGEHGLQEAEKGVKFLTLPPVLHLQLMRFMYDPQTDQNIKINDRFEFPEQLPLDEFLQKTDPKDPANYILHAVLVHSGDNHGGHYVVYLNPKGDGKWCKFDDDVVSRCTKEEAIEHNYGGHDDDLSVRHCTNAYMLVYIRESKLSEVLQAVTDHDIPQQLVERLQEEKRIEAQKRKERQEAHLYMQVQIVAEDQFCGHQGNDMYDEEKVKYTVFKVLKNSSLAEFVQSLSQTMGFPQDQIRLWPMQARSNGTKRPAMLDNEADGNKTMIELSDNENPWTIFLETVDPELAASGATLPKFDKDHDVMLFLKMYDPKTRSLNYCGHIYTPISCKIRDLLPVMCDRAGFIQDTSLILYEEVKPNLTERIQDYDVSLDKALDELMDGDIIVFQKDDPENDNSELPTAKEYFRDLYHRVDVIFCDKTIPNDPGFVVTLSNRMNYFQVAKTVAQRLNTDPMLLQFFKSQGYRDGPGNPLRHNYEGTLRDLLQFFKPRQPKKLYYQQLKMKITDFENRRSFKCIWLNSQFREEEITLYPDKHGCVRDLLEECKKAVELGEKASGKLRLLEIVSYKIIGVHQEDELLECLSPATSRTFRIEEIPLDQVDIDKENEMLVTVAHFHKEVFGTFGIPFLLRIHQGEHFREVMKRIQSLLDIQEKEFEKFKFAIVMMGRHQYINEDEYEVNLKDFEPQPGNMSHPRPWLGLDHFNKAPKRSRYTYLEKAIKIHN

Regarding `CN1CCN(C(=O)c2cc([N+](=O)[O-])c(Sc3c(Cl)cncc3Cl)s2)CC1` [Example 66, (5-((3,5-dichloropyridin-4-yl)thio)-4-nitrothiophen-2-yl)(4-methylpiperazin-1-yl)methanone], the EC50 was in the range of 1 to 10 µM. Same read-out and setting: then `COc1cccc(CNC(=O)c2cc([N+](=O)[O-])c(Sc3c(Cl)cncc3Cl)s2)c1` [Example 99, 5-((3,5-dichloropyridin-4-yl)thio)-N-(3-methoxybenzyl)-4-nitrothiophene-2-carboxamide], with at most 1 µM; and `CC(=O)c1cc([N+](=O)[O-])c(Sc2ccncc2Cl)s1` [Example 39, 1-[5-[(3-chloro-4-pyridyl)sulfanyl]-4-nitro-2-thienyl]ethanone], with above 10 µM. Take `N=C(N)Nc1ccc(NC(=O)c2cc([N+](=O)[O-])c(Sc3c(Cl)cncc3Cl)s2)cc1` [Example 236, 5-((3,5-dichloropyridin-4-yl)thio)-N-(4-guanidinophenyl)-4-nitrothiophene-2-carboxamide]: the EC50 was at most 1 µM. Besides, where the note is “USP7, Ub-PLA2 assay”, the “USP7 inhibition, result in words” value is given as “Particularly good results”.

In the case of `CSc1cccc(CN(C)C(=O)c2cc([N+](=O)[O-])c(Sc3c(Cl)cncc3Cl)s2)c1` [Example 127, 5-((3,5-dichloropyridin-4-yl)thio)-N-methyl-N-(3-(methylthio)benzyl)-4-nitrothiophene-2-carboxamide], the EC50 is at most 1 µM.

With `COc1ccc(Cl)cc1NC(=O)c1cc([N+](=O)[O-])c(Sc2c(Cl)cncc2Cl)s1` [Example 130, N-(5-chloro-2-methoxyphenyl)-5-((3,5-dichloropyridin-4-yl)thio)-4-nitrothiophene-2-carboxamide], the EC50 was at most 1 µM. On the same count and under the same terms, the result for `COc1cccc(NC(=O)c2cc([N+](=O)[O-])c(Sc3c(Cl)cncc3Cl)s2)c1` [Example 156, 5-((3,5-dichloropyridin-4-yl)thio)-N-(3-methoxyphenyl)-4-nitrothiophene-2-carboxamide] reads at most 1 µM.

Turning to `CN1C2CCC1CC(NC(=O)c1cc([N+](=O)[O-])c(Sc3c(Cl)cncc3Cl)s1)C2` (stereo not shown) [Example 184, 5-((3,5-dichloropyridin-4-yl)thio)-N-(8-methyl-8-azabicyclo[3.2.1]octan-3-yl)-4-nitrothiophene-2-carboxamide], the EC50 was at most 1 µM. With `CC(=O)c1cc([N+](=O)[O-])c(Sc2ccc(C(F)(F)F)cc2)s1` [Example 10, 1-{5-[4-(Trifluoromethyl)phenylsulfanyl]-4-nitro-2-thienyl}ethanone], the EC50 is 1 to 10 µM.

Take `Cc1nc(NC(=O)c2cc([N+](=O)[O-])c(Sc3c(Cl)cncc3Cl)s2)sc1C` [Example 88, 5-((3,5-dichloropyridin-4-yl)thio)-N-(4,5-dimethylthiazol-2-yl)-4-nitrothiophene-2-carboxamide]: the EC50 is 1 to 10 µM. On the same count and under the same terms, the result for `CC(=O)c1cc([N+](=O)[O-])c(Sc2nccs2)s1` [Example 14, 1-(4-nitro-5-thiazol-2-ylsulfanyl-2-thienyl)ethanone] reads above 10 µM; that for `O=C(Nc1cccc(Cl)c1)c1cc([N+](=O)[O-])c(Sc2c(Cl)cncc2Cl)s1` [Example 142, N-(3-chlorophenyl)-5-((3,5-dichloropyridin-4-yl)thio)-4-nitrothiophene-2-carboxamide], at most 1 µM; that for `N=C(N)N1CCC(NC(=O)c2cc([N+](=O)[O-])c(Sc3c(Cl)cncc3Cl)s2)CC1` [Example 237, N-(1-carbamimidoylpiperidin-4-yl)-5-((3,5-dichloropyridin-4-yl)thio)-4-nitrothiophene-2-carboxamide], at most 1 µM. On the same count and under the same terms, then `O=C(NC1CCNCC1)c1cc([N+](=O)[O-])c(Sc2c(Cl)cncc2Cl)s1` [Example 196, 5-((3,5-dichloropyridin-4-yl)thio)-4-nitro-N-(piperidin-4-yl)thiophene-2-carboxamide], with at most 1 µM; and `CC(=O)c1cc([N+](=O)[O-])c(Sc2cccc3ccccc23)s1` [Example 5, 1-[5-(Naphth-1-ylsulfanyl)-4-nitro-2-thienyl]ethanone], with above 10 µM.

For the compound `CC(=O)Nc1cccc(CNC(=O)c2cc([N+](=O)[O-])c(Sc3c(Cl)cncc3Cl)s2)c1` [Example 122, N-(3-acetamidobenzyl)-5-((3,5-dichloropyridin-4-yl)thio)-4-nitrothiophene-2-carboxamide], the EC50 is at most 1 µM. As for `CC(=O)c1cc([N+](=O)[O-])c(Sc2cccc(Cl)c2)s1` [Example 6, 1-[5-(3-Chlorophenylsulfanyl)-4-nitro-2-thienyl]ethanone], the EC50 lay in the range of 1 to 10 µM. Consider `COCCNC(=O)CNC(=O)c1cc([N+](=O)[O-])c(Sc2c(Cl)cncc2Cl)s1` [Example 214, 5-((3,5-dichloropyridin-4-yl)thio)-N-(2-((2-methoxyethyl)amino)-2-oxoethyl)-4-nitrothiophene-2-carboxamide], for which the EC50 lay within 1 to 10 µM. On to `CN1CCC(NC(=O)c2cc([N+](=O)[O-])c(Sc3c(Cl)c[n+]([O-])cc3Cl)s2)CC1` [Example 242, 3,5-dichloro-4-((5-((1-methylpiperidin-4-yl)carbamoyl)-3-nitrothiophen-2-yl)thio)pyridine 1-oxide], for which the EC50 lay in the range of 1 to 10 µM. Consider `O=C(c1cc([N+](=O)[O-])c(Sc2c(Cl)cncc2Cl)s1)N1CCC(CO)CC1` [Example 73, (5-((3,5-dichloropyridin-4-yl)thio)-4-nitrothiophen-2-yl)(4-(hydroxymethyl)piperidin-1-yl)methanone], for which the EC50 lay in the range of 1 to 10 µM. On the same count and under the same terms, the result for `O=C(NCc1ccc(Cl)cc1)c1cc([N+](=O)[O-])c(Sc2c(Cl)cncc2Cl)s1` [Example 106, N-(4-chlorobenzyl)-5-((3,5-dichloropyridin-4-yl)thio)-4-nitrothiophene-2-carboxamide] reads at most 1 µM. Consider `CC(=O)c1cc([N+](=O)[O-])c(Sc2ccc([N+](=O)[O-])cc2)s1` [Example 13, 1-[4-nitro-5-(4-nitrophenylsulfanyl)-2-thienyl]ethanone], for which the EC50 lay within 1 to 10 µM. On the same count and under the same terms, the result for `CCCN1CCC(NC(=O)c2cc([N+](=O)[O-])c(Sc3c(Cl)cncc3Cl)s2)CC1` [Example 230, 5-((3,5-dichloropyridin-4-yl)thio)-4-nitro-N-(1-propylpiperidin-4-yl)thiophene-2-carboxamide] reads at most 1 µM; that for `CS(=O)(=O)CCCNC(=O)c1cc([N+](=O)[O-])c(Sc2c(Cl)cncc2Cl)s1` [Example 245, 5-((3,5-dichloropyridin-4-yl)thio)-N-(3-(methylsulfonyl)propyl)-4-nitrothiophene-2-carboxamide], 1 to 10 µM. As to `O=C(NCC(=O)N1CCCC(O)C1)c1cc([N+](=O)[O-])c(Sc2c(Cl)cncc2Cl)s1` (stereo not shown) [Example 212, 5-((3,5-dichloropyridin-4-yl)thio)-N-(2-(3-hydroxypiperidin-1-yl)-2-oxoethyl)-4-nitrothiophene-2-carboxamide], the EC50 lay within 1 to 10 µM. As to `CCOc1cccc(CNC(=O)c2cc([N+](=O)[O-])c(Sc3c(Cl)cncc3Cl)s2)c1` [Example 149, 5-((3,5-dichloropyridin-4-yl)thio)-N-(3-ethoxybenzyl)-4-nitrothiophene-2-carboxamide], the EC50 is at most 1 µM.

Regarding `O=C(NCC(=O)N1CCC(CO)CC1)c1cc([N+](=O)[O-])c(Sc2c(Cl)cncc2Cl)s1` [Example 215, 5-((3,5-dichloropyridin-4-yl)thio)-N-(2-(4-(hydroxymethyl)piperidin-1-yl)-2-oxoethyl)-4-nitrothiophene-2-carboxamide], the EC50 lay in the range of 1 to 10 µM. `Cc1nc(C)c(Cl)c(Sc2sc(C(=O)NC3CCN(C)CC3)cc2[N+](=O)[O-])c1Cl` [Example 243, 5-((3,5-dichloro-2,6-dimethylpyridin-4-yl)thio)-N-(1-methylpiperidin-4-yl)-4-nitrothiophene-2-carboxamide]: the EC50 was 1 to 10 µM.

Turning to `O=C(NCc1ccc2c(c1)OCO2)c1cc([N+](=O)[O-])c(Sc2c(Cl)cncc2Cl)s1` [Example 151, N-(benzo[d][1,3]dioxol-5-ylmethyl)-5-((3,5-dichloropyridin-4-yl)thio)-4-nitrothiophene-2-carboxamide], the half-maximal effective concentration (EC50) was at most 1 µM.

`O=C(NC1CC1)c1cc([N+](=O)[O-])c(Sc2c(Cl)cncc2Cl)s1` [Example 124, N-cyclopropyl-5-((3,5-dichloropyridin-4-yl)thio)-4-nitrothiophene-2-carboxamide]: the EC50 is at most 1 µM. `CS(=O)(=O)c1ccc(NC(=O)c2cc(C#N)c(Sc3c(Cl)cncc3Cl)s2)cc1` [Example 208, 4-cyano-5-((3,5-dichloropyridin-4-yl)thio)-N-(4-(methylsulfonyl)phenyl)thiophene-2-carboxamide]: the EC50 is at most 1 µM. Regarding `CS(=O)(=O)N1CCC(NC(=O)c2cc([N+](=O)[O-])c(Sc3c(Cl)cncc3Cl)s2)CC1` [Example 233, 5-((3,5-dichloropyridin-4-yl)thio)-N-(1-(methylsulfonyl)piperidin-4-yl)-4-nitrothiophene-2-carboxamide], the EC50 was at most 1 µM. On the same count and under the same terms, the result for `O=C(Nc1ccc(O)cc1)c1cc([N+](=O)[O-])c(Sc2c(Cl)cncc2Cl)s1` [Example 181, 5-((3,5-dichloropyridin-4-yl)thio)-N-(4-hydroxyphenyl)-4-nitrothiophene-2-carboxamide] reads at most 1 µM; that for `CC(C)(C)OC(=O)CNC(=O)c1cc([N+](=O)[O-])c(Sc2c(Cl)cncc2Cl)s1` [Example 62, tert-butyl 2-(5-((3,5-dichloropyridin-4-yl)thio)-4-nitrothiophene-2-carboxamido)acetate], 1 to 10 µM; that for `CN1CCCC(NC(=O)c2cc([N+](=O)[O-])c(Sc3c(Cl)cncc3Cl)s2)C1` (stereo not shown) [Example 189, 5-((3,5-dichloropyridin-4-yl)thio)-N-(1-methylpiperidin-3-yl)-4-nitrothiophene-2-carboxamide], at most 1 µM. Same read-out and setting: then `O=C(NCc1cccc(OC(F)(F)F)c1)c1cc([N+](=O)[O-])c(Sc2c(Cl)cncc2Cl)s1` [Example 68, 5-((3,5-dichloropyridin-4-yl)thio)-4-nitro-N-(3-(trifluoromethoxy)benzyl)thiophene-2-carboxamide], with 1 to 10 µM.
